Structures can show the parent of a compound that is named as a salt.
System: C57BL/6 mice
Assay: animal or person
Assay type: in vivo
Conditions: Mus musculus, sc, 0.5 h, s.c. administration, 30 min, 55° C. water, read-out: ED50 (mg/kg) at 30 min on C57BL/6 mice in Warm-water Tail-flick Test

Row | SMILES | ED50 [mg/kg]
1 | CCOC[C@@]1(CCc2ccc(F)s2)CCN(C2(c3ccc(C)nc3)CC2)C1 [Compound 435] | < 10
2 | CCOC[C@@]1(CCc2ccc(F)cc2)CCN(C2(c3cnc(C)cc3CC)CC2)C1 [Compound 436, (S)-5-(1-(3-(ethoxymethyl)-3-(4-fluoro-phenethyl)pyrrolidin-1-yl)cyclopropyl)-4-ethyl-2-methylpyridine] | < 10
3 | CCOC[C@@]1(CCc2ccc(C)cc2)CCN(Cc2cccnc2)C1 [Compound 437, (S)-3-((3-(ethoxymethyl)-3-(4-methyl-phenethyl)pyrrolidin-1-yl)methyl)pyridine] | < 10
4 | CCOCC1(CCc2ccccc2)CCN(N(C)c2ccc(C)nc2)C1 (stereo not drawn) [Compound 438, N-(3-(ethoxymethyl)-3-phenethylpyrrolidin-1-yl)-N,6-dimethylpyridin-3-amine] | > 10
5 | CCOC[C@@]1(CCc2ccc(F)cn2)CCN(Cc2cnc3ccccc3c2)C1 [Compound 439, (S)-3-((3-(ethoxymethyl)-3-(2-(5-fluoropyridin-2-yl)ethyl)pyrrolidin-1-yl)methyl)quinoline] | < 10
6 | CCOC[C@@]1(CCc2ccccc2F)CCN(Cc2cccnc2)C1 [Compound 440] | < 10
7 | CCOC[C@@]1(CCc2cccc(F)c2)CCN(Cc2cccnc2)C1 [Compound 441, (S)-3-((3-(ethoxymethyl)-3-(3-fluoro-phenethyl)pyrrolidin-1-yl)methyl)pyridine] | < 10
8 | CCOC[C@@]1(CNc2ccccc2)CCN(Cc2ccc(C)nc2)C1.Cl [Compound 442, (R)-N-((3-(ethoxymethyl)-1-((6-methylpyridin-3-yl)methyl)pyrrolidin-3-yl)methyl)aniline HCl] | < 10
9 | CCOC[C@@]1(CN(C)c2ccccc2)CCN(Cc2cccnc2)C1.Cl [Compound 443, (S)-N-((3-(ethoxymethyl)-l-(pyridin-3-ylmethyl)pyrrolidin-3-yl)methyl)-N-methylaniline HCl] | < 10
10 | CCOC[C@@]1(COc2ccccc2)CCN(Cc2cccnc2)C1.Cl [Compound 444, (R)-3-((3-(ethoxymethyl)-3-(phenoxy-methyl)pyrrolidin-1-yl)methyl)pyridine HCl] | < 10
11 | CCOC[C@@]1(CCc2nccn2C)CCN(C(C)(C)c2ccc(C)nc2)C1.Cl [Compound 445, (S)-5-(2-(3-(ethoxymethyl)-3-(2-(1-methyl-1H-imidazol-2-yl)ethyl)pyrrolidin-1-yl)propan-2-yl)-2-methylpyridine HCl] | < 10
12 | CCOC[C@@]1(CCc2nccn2C)CCN(C(C)c2ccc(C)nc2)C1.Cl (stereo partly drawn) [Compound 446, 5-(1-((S)-3-(ethoxymethyl)-3-(2-(1-methyl-1H-imidazol-2-yl)ethyl)pyrrolidin-1-yl)ethyl)-2-methylpyridine HCl] | < 10
13 | CC(c1cccnc1)N1CCC(CCc2cccs2)(c2ccccn2)CC1.Cl (stereo not drawn) [Compound 447, 2-(1-(1-(pyridin-3-yl)ethyl)-4-(2-(thiophen-2-yl)ethyl)piperidin-4-yl)pyridine HCl] | < 10
14 | Cl.Cn1cc(CN2CCC(CCc3cccs3)(c3ccccn3)CC2)cn1 [Compound 448] | < 10
15 | CCOC[C@@]1(CCc2nc(C)cs2)CCN(C(C)(C)c2ccc(C)nc2)C1.Cl [Compound 449, (S)-2-(2-(3-(ethoxymethyl)-1-(2-(6-methylpyridin-3-yl)propan-2-yl)pyrrolidin-3-yl)ethyl)-4-methylthiazole HCl] | < 10
16 | CCOC[C@@]1(CCc2nc(C)c(C)s2)CCN(C(C)(C)c2ccc(C)nc2)C1.Cl [Compound 450, (S)-2-(2-(3-(ethoxymethyl)-1-(2-(6-methylpyridin-3-yl)propan-2-yl)pyrrolidin-3-yl)ethyl)-4,5-dimethylthiazole HCl] | < 10
17 | CCOCC1(CCc2cccs2)CCCN1Cc1cccnc1.Cl (stereo not drawn) [Compound 451, 3-((2-(ethoxymethyl)-2-(2-(thiophen-2-yl)ethyl)pyrrolidin-1-yl)methyl)pyridine HCl] | < 10

Row | SMILES | ED50 [mg/kg]
18 | CCOC[C@@]1(CCc2cccs2)CCN(Cc2ccc(OC)nc2)C1.Cl [Compound 452, (S)-5-((3-(ethoxymethyl)-3-(2-(thiophen-2-yl)ethyl)pyrrolidin-1-yl)methyl)-2-methoxypyridine HCl] | < 10
19 | CCOC[C@@]1(CCc2cccs2)CCN(C(C)(C)c2ccc(OC)nc2)C1.Cl [Compound 453, (S)-5-(2-(3-(ethoxymethyl)-3-(2-(thiophen-2-yl)ethyl)pyrrolidin-1-yl)propan-2-yl)-2-methoxypyridine HCl] | < 10
20 | CCOC[C@@]1(CCc2cccs2)CCN(Cc2ccc(=O)[nH]c2)C1.Cl [Compound 454, (S)-5-((3-(ethoxymethyl)-3-(2-(thiophen-2-yl)ethyl)pyrrolidin-1-yl)methyl)pyridin-2(1H)-one HCl] | > 10
21 | CCOCC1(CCC2CCCS2)CCCN1Cc1cccnc1.Cl (stereo not drawn) [Compound 455, 3-((2-(ethoxymethyl)-2-(2-(tetrahydrothiophen-2-yl)ethyl)pyrrolidin-1-yl)methyl)pyridine HCl] | > 10
22 | CCOC[C@@]1(CCc2nc3ncncc3[nH]2)CCN(C(C)(C)c2ccc(C)nc2)C1 [Compound 456, (S)-8-(2-(3-(ethoxymethyl)-1-(2-(6-methylpyridin-3-yl)propan-2-yl)pyrrolidin-3-yl)ethyl)-7H-purine citrate] | < 10
23 | CCOC[C@@]1(CCC2CC2)CCN(C(C)(C)c2ccc(C)nc2)C1 [Compound 457, (S)-5-(2-(3-(2-cyclopropylethyl)-3-(ethoxy-methyl)pyrrolidin-1-yl)propan-2-yl)-2-methylpyridine citrate] | < 10
24 | CCOC[C@@]1(COCc2ccccc2)CCN(C(C)(C)c2ccc(C)nc2)C1.Cl [Compound 458, (R)-5-(2-(3-((benzyloxy)methyl)-3-(ethoxy-methyl)pyrrolidin-1-yl)propan-2-yl)-2-methylpyridine HCl] | < 10
25 | CCCCC[C@]1(COCC)CCN(C(C)(C)c2ccc(C)nc2)C1.Cl [Compound 459, (S)-5-(2-(3-(ethoxymethyl)-3-pentylpyrrolidin-1-yl)propan-2-yl)-2-methylpyridine HCl] | < 10
26 | CCOCC1CCN(C(C)(C)c2ccc(C)nc2)C1.Cl (stereo not drawn) [Compound 460, 5-(2-(3-(ethoxy-methyl)pyrrolidin-1-yl)propan-2-yl)-2-methylpyridine HCl] | < 10
27 | CCOC[C@@]1(CCc2nc3ncncc3n2Cc2ccc(OC)cc2)CCN(C(C)(C)c2ccc(C)nc2)C1 [Compound 461, (S)-8-(2-(3-(ethoxymethyl)-1-(2-(6-methylpyridin-3-yl)propan-2-yl)pyrrolidin-3-yl)ethyl)-7-(4-methoxybenzyl)-7H-purine citrate] | < 10
28 | CCOC[C@@]1(CCc2sccc2C)CCN(Cc2cccnc2)C1 [Compound 462, (S)-3-((3-(ethoxymethyl)-3-(2-(3-methylthiophen-2-yl)ethyl)pyrrolidin-1-yl)methyl)pyridine] | < 10
29 | CCOC[C@@]1(CCc2ccc(C)s2)CCN(Cc2cccnc2)C1 [Compound 463, (S)-3-((3-(ethoxymethyl)-3-(2-(5-methylthiophen-2-yl)ethyl)pyrrolidin-1-yl)methyl)pyridine] | < 10
30 | CCOC[C@@]1(CCc2ccsc2C)CCN(Cc2cccnc2)C1 [Compound 464, (S)-3-((3-(ethoxymethyl)-3-(2-(2-methylthiophen-3-yl)ethyl)pyrrolidin-1-yl)methyl)pyridine] | < 10
31 | CCOC[C@@]1(CCC2CC2)CCN(C2(c3ccc(C)nc3)CC2)C1 [Compound 466, (S)-5-(1-(3-(2-cyclopropylethyl)-3-(ethoxy-methyl)pyrrolidin-1-yl)cyclopropyl)-2-methylpyridine] | < 10
32 | Cc1ccc(CN2[C@@H](C)CC(CCc3ccc(F)cn3)(c3ccccn3)C[C@@H]2C)cn1 (stereo partly drawn) [Compound 467, 2-(2-((2S,6S)-2,6-dimethyl-1-((6-methylpyridin-3-yl)methyl)-4-(pyridin-2-yl)piperidin-4-yl)ethyl)-5-fluoropyridine] | > 10
33 | Cc1ccc(C(C)(C)N2CC[C@](CCc3cccs3)([C@@H]3CCC(C)(C)O3)C2)cn1 [Compound 468, 5-(2-((S)-3-((S)-5,5-dimethyltetrahydro-furan-2-yl)-3-(2-(thiophen-2-yl)ethyl)pyrrolidin-1-yl)propan-2-yl)-2-methylpyridine] | < 10
